According to US8415340B2, “Triazine kinase inhibitors” (Bristol-Myers Squibb Company, priority 2007, dated 2013):

Target: IGF1-receptor (Homo sapiens, UniProt P08069)
Experiment: IGF1-Receptor Tyrosine Kinase Assay
Format: biochemical
Conditions: in vitro kinase; ATP 25 μM; read-out: IGF1R kinase IC50
Experimental: D. IGF1-Receptor Tyrosine Kinase Assay
The assays were performed in U-bottom 384-well plates. The final assay volume was 30 μl prepared from 15 μl additions of enzyme and substrates (fluoresceinated IGF1R substrate peptide and ATP) and test compounds in assay buffer (100 mM HEPES pH 7.4, 10 mM MnCl2, 0.015% Brij35 and 4 mM DTT). The reaction was initiated by the combination of IGF1-receptor with substrates and test compounds. The reaction was incubated at room temperature for 60 min. and terminated by adding 30 μl of 35 mM EDTA to each sample. The reaction mixture was analyzed on the Caliper LabChip 3000 by electrophoretic separation of the fluorescent substrate and phosphorylated product. Inhibition data were calculated by comparison to no enzyme control reactions for 100% inhibition and vehicle-only reactions for 0% inhibition. The final concentration of reagents in the assays is ATP, 25 μM; FL-peptide, 1.5 μM; IGF1-Receptor, 14 nM; and DMSO, 1.6%. Dose response curves were generated to determine the concentration required inhibiting 50% of kinase activity (IC50). Compounds were dissolved at 10 mM in dimethylsulfoxide (DMSO) and evaluated at eleven concentrations, each in duplicate. IC50 values were derived by non-linear regression analysis.

IGF1-receptor, sequence (P08069 31-1367): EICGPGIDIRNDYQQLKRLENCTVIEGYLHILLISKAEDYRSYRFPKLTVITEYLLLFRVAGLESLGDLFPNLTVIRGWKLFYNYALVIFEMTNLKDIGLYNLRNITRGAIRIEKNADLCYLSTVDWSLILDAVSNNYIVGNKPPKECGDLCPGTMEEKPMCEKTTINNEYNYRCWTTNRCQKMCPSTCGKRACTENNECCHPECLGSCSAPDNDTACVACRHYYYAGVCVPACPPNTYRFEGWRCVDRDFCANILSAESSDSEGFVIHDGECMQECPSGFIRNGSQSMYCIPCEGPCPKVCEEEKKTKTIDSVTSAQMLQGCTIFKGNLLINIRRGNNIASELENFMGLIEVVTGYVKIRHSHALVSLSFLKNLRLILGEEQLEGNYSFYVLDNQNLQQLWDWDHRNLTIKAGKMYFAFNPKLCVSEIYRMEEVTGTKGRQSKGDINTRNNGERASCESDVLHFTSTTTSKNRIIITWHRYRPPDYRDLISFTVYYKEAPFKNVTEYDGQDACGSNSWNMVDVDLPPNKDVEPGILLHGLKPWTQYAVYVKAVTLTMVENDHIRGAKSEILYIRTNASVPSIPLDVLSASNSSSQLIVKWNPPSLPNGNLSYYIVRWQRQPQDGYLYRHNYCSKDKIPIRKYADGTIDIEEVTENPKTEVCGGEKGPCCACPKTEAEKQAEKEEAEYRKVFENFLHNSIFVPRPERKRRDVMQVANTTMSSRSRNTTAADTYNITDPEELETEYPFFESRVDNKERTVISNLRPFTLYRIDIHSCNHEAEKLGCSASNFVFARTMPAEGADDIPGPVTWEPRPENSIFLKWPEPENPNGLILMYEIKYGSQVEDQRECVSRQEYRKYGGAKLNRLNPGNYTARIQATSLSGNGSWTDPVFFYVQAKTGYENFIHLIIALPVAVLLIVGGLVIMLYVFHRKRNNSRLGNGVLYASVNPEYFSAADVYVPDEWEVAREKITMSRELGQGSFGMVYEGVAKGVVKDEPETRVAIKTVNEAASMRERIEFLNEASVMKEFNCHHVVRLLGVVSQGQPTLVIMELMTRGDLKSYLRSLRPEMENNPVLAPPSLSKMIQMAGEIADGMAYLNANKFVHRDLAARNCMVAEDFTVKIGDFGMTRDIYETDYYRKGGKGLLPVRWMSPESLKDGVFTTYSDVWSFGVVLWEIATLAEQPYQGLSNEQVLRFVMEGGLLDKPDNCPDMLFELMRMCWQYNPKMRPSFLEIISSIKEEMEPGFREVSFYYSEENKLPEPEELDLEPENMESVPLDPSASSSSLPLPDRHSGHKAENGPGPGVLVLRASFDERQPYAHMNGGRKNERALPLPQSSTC

SMILES | IC50 [nM]
COc1nc(Nc2cc(C3CC3)[nH]n2)nc(N2C[C@@H](OC)C[C@H]2C(=O)Nc2cnccn2)n1 [Example 20, (2S,4S)-1-(4-(5-Cyclopropyl-1H-pyrazol-3-ylamino)-6-methoxy-1,3,5-triazin-2-yl)-4-methoxy-N-(pyrazin-2-yl)pyrrolidine-2-carboxamide] | 7
COCCN1CCN(c2nc(Nc3cc(C4CC4)n[nH]3)nc(N3C[C@@H](OC)C[C@H]3C(=O)Nc3cnccn3)n2)CC1 [Example 25, (2S,4S)-1-(4-(3-Cyclopropyl-1H-pyrazol-5-ylamino)-6-(4-(2-methoxyethyl)piperazin-1-yl)-1,3,5-triazin-2-yl)-4-methoxy-N-(pyrazin-2-yl)pyrrolidine-2-carboxamide] | 3
CO[C@H]1C[C@@H](C(=O)Nc2cnccn2)N(c2nc(NCCN(C)C)nc(Nc3cc(C4CC4)n[nH]3)n2)C1 [Example 27, (2S,4S)-1-(4-(3-Cyclopropyl-1H-pyrazol-5-ylamino)-6-(2-(dimethylamino)ethylamino)-1,3,5-triazin-2-yl)-4-methoxy-N-(pyrazin-2-yl)pyrrolidine-2-carboxamide] | 7
CO[C@H]1C[C@@H](C(=O)Nc2cnccn2)N(c2nc(Nc3cc(C4CC4)[nH]n3)nc(N3CCSCC3)n2)C1 [Example 34, (2S,4S)-1-(4-(5-Cyclopropyl-1H-pyrazol-3-ylamino)-6-thiomorpholino-1,3,5-triazin-2-yl)-4-methoxy-N-(pyrazin-2-yl)pyrrolidine-2-carboxamide] | 3
CO[C@H]1C[C@@H](C(=O)Nc2cnccn2)N(c2nc(Nc3cc(C4CC4)n[nH]3)nc(N3CCN(S(C)(=O)=O)CC3)n2)C1 [Example 46, (2S,4S)-1-(4-(3-Cyclopropyl-1H-pyrazol-5-ylamino)-6-(4-(methylsulfonyl)piperazin-1-yl)-1,3,5-triazin-2-yl)-4-methoxy-N-(pyrazin-2-yl)pyrrolidine-2-carboxamide] | 3
CO[C@H]1C[C@@H](C(=O)Nc2cnccn2)N(c2nc(Nc3cc(C4CC4)[nH]n3)nc(-n3nc(C4CC4)cc3N)n2)C1 [Example 58, (2S,4S)-1-(4-(5-Amino-3-cyclopropyl-1H-pyrazol-1-yl)-6-(5-cyclopropyl-1H-pyrazol-3-ylamino)-1,3,5-triazin-2-yl)-4-methoxy-N-(pyrazin-2-yl)pyrrolidine-2-carboxamide] | 95
CO[C@H]1C[C@@H](C(=O)Nc2ccc(F)nc2)N(c2nc(Nc3cc(C4CC4)n[nH]3)nc(N3CCOCC3)n2)C1 [Example 62, (2S,4S)-1-(4-(3-Cyclopropyl-1H-pyrazol-5-ylamino)-6-morpholino-1,3,5-triazin-2-yl)-N-(6-fluoropyridin-3-yl)-4-methoxypyrrolidine-2-carboxamide] | 2
O=C(N[C@H]1CCCN(c2nc(Nc3cc(C4CC4)n[nH]3)nc(N3C[C@H](F)C[C@H]3C(=O)Nc3cnccn3)n2)C1)C1CC1 [Example 72, (2S,4R)-1-(4-((S)-3-(Cyclopropanecarboxamido)piperidin-1-yl)-6-(3-cyclopropyl-1H-pyrazol-5-ylamino)-1,3,5-triazin-2-yl)-4-fluoro-N-(pyrazin-2-yl)pyrrolidine-2-carboxamide] | 56
O=C(Nc1ncns1)[C@@H]1C[C@@H](F)CN1c1nc(Nc2cc(C3CC3)n[nH]2)nc(N2CCOCC2)n1 [Example 82, (2S,4R)-1-(4-(3-Cyclopropyl-1H-pyrazol-5-ylamino)-6-morpholino-1,3,5-triazin-2-yl)-4-fluoro-N-(1,2,4-thiadiazol-5-yl)pyrrolidine-2-carboxamide] | 7
COCCN1CCN(c2nc(Nc3cc(C4CC4)n[nH]3)nc(N3C[C@@H](O)C[C@H]3C(=O)Nc3cnccn3)n2)CC1 [Example 87, (2S,4S)-1-(4-(3-Cyclopropyl-1H-pyrazol-5-ylamino)-6-(4-(2-methoxyethyl)piperazin-1-yl)-1,3,5-triazin-2-yl)-4-hydroxy-N-(pyrazin-2-yl)pyrrolidine-2-carboxamide] | 2
CN1CCN(c2nc(Nc3cc(C4CC4)[nH]n3)nc(N3C[C@@H](O)C[C@@]3(C)C(=O)Nc3nccs3)n2)CC1 [Example 102, (2S,4S)-1-(4-(5-Cyclopropyl-1H-pyrazol-3-ylamino)-6-(4-methylpiperazin-1-yl)-1,3,5-triazin-2-yl)-4-hydroxy-2-methyl-N-(thiazol-2-yl)pyrrolidine-2-carboxamide] | 44
COCCN1CCN(c2nc(Nc3cc(C4CC4)[nH]n3)nc(N3C[C@@H](O)C[C@@]3(C)C(=O)Nc3nccs3)n2)CC1 [Example 103, (2S,4S)-1-(4-(5-Cyclopropyl-1H-pyrazol-3-ylamino)-6-(4-(2-methoxyethyl)piperazin-1-yl)-1,3,5-triazin-2-yl)-4-hydroxy-2-methyl-N-(thiazol-2-yl)pyrrolidine-2-carboxamide] | 108
CN1CC2CC1CN2c1nc(Nc2cc(C3CC3)[nH]n2)nc(N2C[C@@H](O)C[C@@]2(C)C(=O)Nc2nccs2)n1 (stereo partly drawn) [Example 104, (2S,4S)-1-(4-(5-Cyclopropyl-1H-pyrazol-3-ylamino)-6-(5-methyl-2,5-diazabicyclo[2.2.1]heptan-2-yl)-1,3,5-triazin-2-yl)-4-hydroxy-2-methyl-N-(thiazol-2-yl)pyrrolidine-2-carboxamide] | 43
Cc1cnc(NC(=O)[C@]2(C)C[C@H](O)CN2c2nc(Nc3cc(C4CC4)[nH]n3)nc(N3CCOCC3)n2)s1 [Example 105, (2S,4S)-1-(4-(5-Cyclopropyl-1H-pyrazol-3-ylamino)-6-morpholino-1,3,5-triazin-2-yl)-4-hydroxy-2-methyl-N-(5-methylthiazol-2-yl)pyrrolidine-2-carboxamide] | 89
CO[C@H]1C[C@@H](C(=O)N[C@@H]2CCCN(C)C2)N(c2nc(Nc3cc(C4CC4)[nH]n3)nc(N3CCOCC3)n2)C1 [Example 113, (2S,4S)-1-(4-(5-Cyclopropyl-1H-pyrazol-3-ylamino)-6-morpholino-1,3,5-triazin-2-yl)-4-methoxy-N—((R)-1-methylpiperidin-3-yl)pyrrolidine-2-carboxamide] | 7
CN1CCN(c2nc(Nc3cc(C4CC4)n[nH]3)nc(N3CC(F)(F)C[C@H]3C(=O)Nc3cnccn3)n2)CC1 [Example 117, (S)-1-(4-(3-Cyclopropyl-1H-pyrazol-5-ylamino)-6-(4-methylpiperazin-1-yl)-1,3,5-triazin-2-yl)-4,4-difluoro-N-(pyrazin-2-yl)pyrrolidine-2-carboxamide] | 7
O=C(Nc1cnccn1)[C@@H]1CC(F)(F)CN1c1nc(Nc2cc(C3CC3)n[nH]2)nc(N2CCN(CCO)CC2)n1 [Example 119, (S)-1-(4-(3-Cyclopropyl-1H-pyrazol-5-ylamino)-6-(4-(2-hydroxyethyl)piperazin-1-yl)-1,3,5-triazin-2-yl)-4,4-difluoro-N-(pyrazin-2-yl)pyrrolidine-2-carboxamide] | 3
CN1CCN(c2nc(Nc3cc(C4CC4)n[nH]3)nc(N3[C@H](C(=O)Nc4cnccn4)C[C@@H]4C[C@@H]43)n2)CC1 [Example 122, (1S,3S,5S)-2-(4-(3-Cyclopropyl-1H-pyrazol-5-ylamino)-6-(4-methylpiperazin-1-yl)-1,3,5-triazin-2-yl)-N-(pyrazin-2-yl)-2-azabicyclo[3.1.0]hexane-3-carboxamide] | 7

Tested on: IGF1R-Sal tumors
Experiment: IGF-1R Sal Tumor Model
Format: in vivo
Conditions: 3.13 mpk, orally, qd × 4 days, nude mice bearing IGF1R-Sal tumors
Experimental: P. IGF-1R Sal Tumor Model
A salivary gland adenocarcinoma that developed spontaneously in a transgenic mouse (MCI-19) was excised and cut into fragments of about 20 mg. Tumor fragments were implanted s.c. into the ventral thoracic region of a group of six female, athymic BALB/c nu/nu mice (Harley Sprague-Dawley, Indianapolis, Ind.), using a 13-gauge trocar. Once established, the salivary gland-derived tumor line was designated IGF1R-Sal and was propagated as a tumor xenograft in nude mice. Tumors were passaged every 2 weeks, at which time the tumor reached f500 to 1,000 mm3 in size. For treatment studies, nude micebearing IGF1R-Sal tumors of about 100 mm3 in size were sorted into groups of five for treatment with vehicle (80% polyethylene glycol 400 in water) alone or the test article. Compounds were administered either on a bid schedule (oral doses 8 hours apart) or on a once a day schedule orally (qd) for 4 consecutive days. Tumors were measured at the start and end of treatment. Activity was measured as % tumor growth inhibition (% TGI). The % TGI was determined using the following formula (Ct−Tt)/(Ct−Co) where Ct is defined as the median tumor size of the control group at the end of treatment, Co is defined as the median tumor size of the control group at the start of treatment, and Tt is defined as the median tumor size of the treated group at the end of treatment.

SMILES | % TGI (3.13 mpk) [%]
CO[C@H]1C[C@@H](C(=O)Nc2cnccn2)N(c2nc(Nc3cc(C4CC4)n[nH]3)nc(N3CCOCC3)n2)C1 [Example 18, (2S,4S)-1-(4-(3-Cyclopropyl-1H-pyrazol-5-ylamino)-6-morpholino-1,3,5-triazin-2-yl)-4-methoxy-N-(pyrazin-2-yl)pyrrolidine-2-carboxamide] | 96
O=C(Nc1cnccn1)[C@@H]1C[C@@H](F)CN1c1nc(Nc2cc(C3CC3)n[nH]2)nc(N2CCOCC2)n1 [Example 65, (2S,4R)-1-(4-(3-Cyclopropyl-1H-pyrazol-5-ylamino)-6-morpholino-1,3,5-triazin-2-yl)-4-fluoro-N-(pyrazin-2-yl)pyrrolidine-2-carboxamide] | 80

Same assay, conditions: 6.25 mpk, orally, qd × 4 days, nude mice bearing IGF1R-Sal tumors

SMILES | % TGI (6.25 mpk) [%]
CN1CCN(c2nc(Nc3cc(C4CC4)n[nH]3)nc(N3C[C@H](F)C[C@H]3C(=O)Nc3cnccn3)n2)CC1 [Example 68, (2S,4R)-1-(4-(3-Cyclopropyl-1H-pyrazol-5-ylamino)-6-(4-methylpiperazin-1-yl)-1,3,5-triazin-2-yl)-4-fluoro-N-(pyrazin-2-yl)pyrrolidine-2-carboxamide] | 7
